Biological target: T1, trypsin (Bos taurus, UniProt P00760)
T1 sequence (P00760 24-246): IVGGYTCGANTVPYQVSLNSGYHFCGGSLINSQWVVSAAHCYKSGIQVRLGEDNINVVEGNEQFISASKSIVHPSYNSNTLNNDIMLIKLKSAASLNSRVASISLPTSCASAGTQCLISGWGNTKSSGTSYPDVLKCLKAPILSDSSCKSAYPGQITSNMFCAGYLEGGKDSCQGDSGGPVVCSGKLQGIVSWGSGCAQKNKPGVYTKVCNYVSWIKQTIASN
Assay: Determination of Trypsin-Inhibiting Activity (chromogenic substrate S-2222)
Type: biochemical
Conditions: inhibitor concentration giving 50% of ΔA/min (405 nm) without inhibitor; 33.3 μM S-2222, 0.1 M Tris-HCl pH 8.3, 37° C.; read-out: I50
Experimental: Trypsin-inhibiting activity of the arginine derivatives of this invention was determined by the method described below.
Determination of Trypsin-Inhibiting Activity
Trypsin activity is determined by measuring the rate of formation of para-nitroaniline from synthesized chromogenic substrate Jz-Ile-Glu(γ-OH and γ-OCH3)-Gly-Arg-pNA (S-2222)(benzoylisoleucylglutamyl(γ-OH:γ-OCH3 =1:1)glycylarginine p-nitroanilide) supplied by Kabi Diagnostica Inc. Three (3) ml of a reaction mixture containing 33.3 μM of S-2222 and 0.1 M Tris-HCl buffer solution (pH 8.3) is placed in a cell for spectrophotometry and the cell is placed in the thermostatic cell holder at 37° C. of a Hitachi 124 spectrophotometer. After the cell is kept at 37° C. for 3 minutes, 10 μl of a solution of trypsin dissolved in 0.001N HCl containing 0.05M CaCl2 is added, and increase in absorbance at 405 nm is continuously measured using a recorder to calculate ΔA/min at an initial portion. Various inhibitors in various concentrations are added and ΔA/min values are respectively measured. Data are plotted with the inhibitor concentration as abscissa and ΔA/min as ordinate. From the resulting graph the inhibitor concentrations which give ΔA/min corresponding to 50% of the ΔA/min value when no inhibitor is added are sought as I50.

SMILES	IC50 [nM]
COc1ccc2ccc(S(=O)(=O)N[C@@H](CCCNC(=N)N)C(=O)N3CCC(Oc4ccccc4)CC3)cc2c1 [compound 43]	25000
COc1ccc2ccc(S(=O)(=O)N[C@@H](CCCNC(=N)N)C(=O)N3CCC(c4ccccc4OC)CC3)cc2c1 [compound 39]	280
N=C(N)NCCC[C@H](NS(=O)(=O)c1cccc2c(Cl)cccc12)C(=O)N1CCC(c2ccccc2)CC1 [compound 47]	2500
COc1cc2ccc(S(=O)(=O)N[C@@H](CCCNC(=N)N)C(=O)N3CCN(c4ccccc4)CC3)cc2cc1OC [compound 9]	7800
COc1ccc2cc(S(=O)(=O)N[C@@H](CCCNC(=N)N)C(=O)N3CCC(c4ccccc4)CC3)cc(OC)c2c1 [compound 13]	2250
COc1ccc2ccc(S(=O)(=O)N[C@@H](CCCNC(=N)N)C(=O)N3CCC(c4ccccc4C)CC3)cc2c1 [compound 40]	400
N=C(N)NCCC[C@H](NS(=O)(=O)c1ccc2c(c1)CCCC2)C(=O)N1CCC(c2ccccc2)CC1 [compound 35]	6700
N=C(N)NCCC[C@H](NS(=O)(=O)c1ccc2ccc(O)cc2c1)C(=O)N1CCC(c2ccccc2)CC1 [compound 42]	37000
COc1ccc2ccc(S(=O)(=O)N[C@@H](CCCNC(=N)N)C(=O)N3CCN(c4cccc(Cl)c4)CC3)cc2c1 [compound 17]	380
COc1ccc2cc(S(=O)(=O)N[C@@H](CCCNC(=N)N)C(=O)N3CCC(c4ccccc4)CC3)ccc2c1 [compound 31]	41200
N=C(N)NCCC[C@H](NC(=O)c1ccc2ccccc2c1)C(=O)N1CCC(c2ccccc2)CC1 [compound 44]	110000
COc1ccc2ccc(S(=O)(=O)N[C@@H](CCCNC(=N)N)C(=O)N3CCN(c4cccc(C(F)(F)F)c4)CC3)cc2c1 [compound 46]	1600
N=C(N)NCCC[C@H](NS(=O)(=O)c1cccc2ccccc12)C(=O)N1CCC(c2ccccc2)CC1 [compound 37]	11000
COc1ccc(S(=O)(=O)N[C@@H](CCCNC(=N)N)C(=O)N2CCC(c3ccccc3)CC2)c2ccccc12 [compound 29]	2200
Cc1ccc(S(=O)(=O)N[C@@H](CCCNC(=N)N)C(=O)N2CCC(c3ccccc3)CC2)cc1 [Run No. 5]	22000
COc1ccc2ccc(S(=O)(=O)N[C@@H](CCCNC(=N)N)C(=O)N3CCC(C#N)(c4ccccc4)CC3)cc2c1 [compound 30]	1300
COc1cccc(C2CCN(C(=O)[C@H](CCCNC(=N)N)NS(=O)(=O)c3ccc4ccc(OC)cc4c3)CC2)c1 [compound 58]	750
CCOC(=O)C1(c2ccccc2)CCN(C(=O)[C@H](CCCNC(=N)N)NS(=O)(=O)c2ccc3ccc(OC)cc3c2)CC1 [Run No. 54]	12000
CCOc1ccc2ccc(S(=O)(=O)N[C@@H](CCCNC(=N)N)C(=O)N3CCC(c4ccccc4)CC3)cc2c1 [compound 21]	900

SMILES	IC50 [nM]
N=C(N)NCCC[C@H](NS(=O)(=O)c1ccc2ccccc2c1)C(=O)N1CCC(c2ccccc2)CC1 [compound 38]	3200
CCOc1c(OC)ccc(S(=O)(=O)N[C@@H](CCCNC(=N)N)C(=O)N2CCC(c3ccccc3)CC2)c1OC [compound 19]	2400
COc1ccc2ccc(S(=O)(=O)N[C@@H](CCCNC(=N)N)C(=O)N3CCC(Cc4ccccc4)CC3)cc2c1 [compound 25]	600
COc1cccc2cccc(S(=O)(=O)N[C@@H](CCCNC(=N)N)C(=O)N3CCC(c4ccccc4)CC3)c12 [compound 36]	87000
CCOC(=O)C1CC(c2ccccc2)CCN1C(=O)[C@H](CCCNC(=N)N)NS(=O)(=O)c1ccc2ccc(OC)cc2c1 (stereo partly shown) [Run No. 23]	650
COc1ccc2ccc(S(=O)(=O)N[C@@H](CCCNC(=N)N)C(=O)N3CCN(c4ccc(Cl)cc4)CC3)cc2c1 [compound 16]	690
N=C(N)NCCC[C@H](NS(=O)(=O)c1ccc2oc3ccccc3c2c1)C(=O)N1CCC(c2ccccc2)CC1 [compound 10]	2200
COc1ccc(C2CCN(C(=O)[C@H](CCCNC(=N)N)NS(=O)(=O)c3ccc4ccc(OC)cc4c3)CC2)cc1 [compound 52]	200
COc1ccc2ccc(S(=O)(=O)N[C@@H](CCCNC(=N)N)C(=O)N3CCC(C(=O)Nc4ccccc4)CC3)cc2c1 [compound 33]	3400
N=C(N)NCCC[C@H](NS(=O)(=O)c1cccc2c1CCCC2)C(=O)N1CCC(c2ccccc2)CC1 [compound 34]	7700
COc1cc2ccc(S(=O)(=O)N[C@@H](CCCNC(=N)N)C(=O)N3CCC(Cc4ccccc4)CC3)cc2cc1OC [Run No. 4]	3500
COc1ccc2ccc(S(=O)(=O)N[C@@H](CCCNC(=N)N)C(=O)N3CCN(c4ccccc4Cl)CC3)cc2c1 [compound 18]	330
COc1ccc2ccc(S(=O)(=O)N[C@@H](CCCNC(=N)N)C(=O)N3CC[C@@H](c4ccccc4)C[C@@H]3C(=O)O)cc2c1 [compound 56]	150
COc1ccc2ccc(S(=O)(=O)N[C@@H](CCCNC(=N)N)C(=O)N3CCN(c4ccccc4)CC3)cc2c1 [compound 7]	1500
COc1ccc2ccc(S(=O)(=O)N[C@@H](CCCNC(=N)N)C(=O)N3CCN(c4ccccc4O)CC3)cc2c1 [compound 55]	800
COc1ccc2ccc(S(=O)(=O)N[C@@H](CCCNC(=N)N)C(=O)N3CCC(c4ccc(C)cc4)CC3)cc2c1 [compound 53]	370
N=C(N)NCCC[C@H](NC(=O)c1cccc2ccccc12)C(=O)N1CCC(c2ccccc2)CC1 [compound 14]	395000
N=C(N)NCCC[C@H](NS(=O)(=O)c1ccc2cc3c(cc2c1)OCCO3)C(=O)N1CCC(c2ccccc2)CC1 [compound 15]	6000

Continued by falling IC50, values first:

IC50 [nM]	SMILES
450000	COc1cc2c(S(=O)(=O)N[C@@H](CCCNC(=N)N)C(=O)N3CCC(c4ccccc4)CC3)cccc2cc1C(=O)O [compound 50]
74000	Cc1ccc(S(=O)(=O)N[C@@H](CCCNC(=N)N)C(=O)N2CCN(c3ccccc3)CC2)cc1 [compound 8]
35000	COc1ccc2ccc(S(=O)(=O)N[C@@H](CCCNC(=N)N)C(=O)N3CCC(C(C)=O)(c4ccccc4)CC3)cc2c1 [compound 27]
10000	CC1CNc2c(cccc2S(=O)(=O)N[C@@H](CCCNC(=N)N)C(=O)N2CCN(c3ccccc3)CC2)C1 (stereo partly shown) [compound 6]
9000	Cc1cc2ccc(S(=O)(=O)N[C@@H](CCCNC(=N)N)C(=O)N3CCC(c4ccccc4)CC3)cc2cc1C [compound 32]
3200	N=C(N)NCCC[C@H](NS(=O)(=O)c1ccc2c(c1)Cc1ccccc1-2)C(=O)N1CCC(c2ccccc2)CC1 [compound 11]
2800	COc1ccc(N2CCN(C(=O)[C@H](CCCNC(=N)N)NS(=O)(=O)c3ccc4ccc(OC)cc4c3)CC2)cc1 [compound 28]
2400	COc1cc2ccc(S(=O)(=O)N[C@@H](CCCNC(=N)N)C(=O)N3CCC(c4ccccc4)CC3)cc2cc1OC [Run No. 3]
2100	CC1CNc2c(cccc2S(=O)(=O)N[C@@H](CCCNC(=N)N)C(=O)N2CCC(c3ccccc3)CC2)C1 (stereo partly shown) [Run No. 1]
2100	CCOC(=O)c1cc2cccc(S(=O)(=O)N[C@@H](CCCNC(=N)N)C(=O)N3CCC(c4ccccc4)CC3)c2cc1OC [Run No. 49]
1900	COc1ccc2ccc(S(=O)(=O)N[C@@H](CCCNC(=N)N)C(=O)N3CC[C@H](c4ccccc4)C[C@H]3C(=O)O)cc2c1 [compound 57]
1100	N=C(N)NCCC[C@H](NS(=O)(=O)c1ccc2ccc(Cl)cc2c1)C(=O)N1CCC(c2ccccc2)CC1 [compound 48]
1000	Cc1ccc2ccc(S(=O)(=O)N[C@@H](CCCNC(=N)N)C(=O)N3CCC(c4ccccc4)CC3)cc2c1 [compound 12]
1000	COc1ccc2ccc(S(=O)(=O)N[C@@H](CCCNC(=N)N)C(=O)N3CCN(c4cc(Cl)cc(Cl)c4)CC3)cc2c1 [compound 45]
860	COc1ccc2ccc(S(=O)(=O)N[C@@H](CCCNC(=N)N)C(=O)N3CCN(c4ccc(F)cc4)CC3)cc2c1 [compound 26]
800	COc1ccc2ccc(S(=O)(=O)N[C@@H](CCCNC(=N)N)C(=O)N3CCN(c4ccccc4OC)CC3)cc2c1 [compound 20]
460	COc1ccc2ccc(S(=O)(=O)N[C@@H](CCCNC(=N)N)C(=O)N3CCC(c4ccc(Cl)cc4)CC3)cc2c1 [compound 41]
400	COc1ccc2ccc(S(=O)(=O)N[C@@H](CCCNC(=N)N)C(=O)N3CCC(c4ccccc4)CC3C(=O)O)cc2c1 (stereo partly shown) [compound 24]
400	COc1ccc2ccc(S(=O)(=O)N[C@@H](CCCNC(=N)N)C(=O)N3CCN(c4ccccc4C)CC3)cc2c1 [compound 22]
300	COc1ccc2ccc(S(=O)(=O)N[C@@H](CCCNC(=N)N)C(=O)N3CCC(c4cccc(C)c4)CC3)cc2c1 [compound 51]
230	COc1ccc2ccc(S(=O)(=O)N[C@@H](CCCNC(=N)N)C(=O)N3CCC(c4ccccc4)CC3)cc2c1 [Run No. 2, 1-[N^2-(7-methoxy-2-naphthalenesulfonyl)-L-arginyl]-4-phenylpiperidine]
